By inhibition is commonly meant the change of the read-out against control, counted positive when it falls. High values mean a strong effect, low ones a weak effect. As usually defined, the IC50 is the point on the concentration scale where inhibition reaches its midpoint. A higher IC50 goes with weaker potency in that assay.

The target of one test is T1, human SGLT2 (Homo sapiens, UniProt P31639).
T1 construct: expressed in transfected cells; host or cells: CHO-K1
T1 sequence (P31639 1-672): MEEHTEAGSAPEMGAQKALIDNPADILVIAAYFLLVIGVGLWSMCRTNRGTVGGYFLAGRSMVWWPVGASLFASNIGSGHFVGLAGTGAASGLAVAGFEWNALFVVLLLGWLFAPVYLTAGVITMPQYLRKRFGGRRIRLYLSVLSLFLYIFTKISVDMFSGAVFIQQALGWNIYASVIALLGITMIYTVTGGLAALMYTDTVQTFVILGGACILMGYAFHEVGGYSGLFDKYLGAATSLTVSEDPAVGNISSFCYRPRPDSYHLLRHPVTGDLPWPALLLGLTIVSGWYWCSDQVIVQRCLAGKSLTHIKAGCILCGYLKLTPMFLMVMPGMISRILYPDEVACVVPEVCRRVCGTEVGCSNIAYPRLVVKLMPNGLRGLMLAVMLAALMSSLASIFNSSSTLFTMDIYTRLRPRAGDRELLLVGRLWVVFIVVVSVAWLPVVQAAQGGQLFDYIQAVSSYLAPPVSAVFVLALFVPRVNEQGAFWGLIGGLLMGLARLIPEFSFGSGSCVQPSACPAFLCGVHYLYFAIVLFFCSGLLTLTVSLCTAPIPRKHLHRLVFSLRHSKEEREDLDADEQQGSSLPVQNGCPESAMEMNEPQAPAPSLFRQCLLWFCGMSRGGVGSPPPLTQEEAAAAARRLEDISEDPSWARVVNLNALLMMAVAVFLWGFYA
Put plainly: SGLT2 assay: Na-dependent 14C-AMG uptake in CHO-K1 cells stably expressing human SGLT2. Type of test: cell-based. The following applies: for IC50: 500 μM AMG, 2 hours at 37° C. As to the method: (§1) SGLT1 and SGLT2 were cloned in form of cDNA from human small intestine (Genbank M24847), and from human kidney (Genbank M95549), respectively. Subsequently, each full cDNA was subcloned into pcDNA with each construct's integrity verified through follow-on sequencing. To generate CHO-K1 cells that stably express human SGLT1 or human SGLT2, CHO-K1 cells were transfected using DMRIE-C reagent (Life Technologies, Gaithersburg, Md.). Transfected cells were then selected in the presence of 500 μg/ml of the Geneticin (G418 Cellgro Catalog No. 30234-CI)
(§2) Individual clones were then characterized using the following cell-based assay for sodium-dependent glucose transport:
(§3) Inhibition of SGLT1 and SGLT2 activity was assessed in CHO K1 cells stably expressing either human SGLT1 or SGLT2, using the SGLT specific glucose analog methyl-glucopyranoside (Sigma Catalog No. M-9376). Cells were plated (45,000 cells/well) in white wall 96-well plates (COSTAR, Cat#3903) for 24 hours in growth medium, then a final concentration of 10 mM Na-Butyrate (ALDRICH Cat#30341-0) was added. The cells were incubated for 24 hours. On the day of the assay, cells were rinsed and treated with test compounds (at concentrations of 0.001 μM to 10 μM) in assay buffer (50 mM HEPES, 20 mM Tris base, 5 mM KCl, 1 mM MgCl2, 1 mM CaCl2 and 137 mM NaCl, pH 7.4) for 10 minutes. Cells were then incubated with ^14C-a-methyl-d-glucopyranoside (AMG, Amersham Catalog No. CFB 76), using 0.07 μCi per well in 500 μM AMG final concentration. The cells were incubated for 2 hours at 37° C. with 5% CO2 and washed two times with ice-cold Phosphate Buffer Solution (Cellgro Catalog No. 21030-CV). The cells were then solubilized by adding 60 μl of MICROSCINT™20 and the Na-dependent ^14C-AMG uptake was quantified by measuring radioactivity. Plates were counted in a TopCount (Packard, Meriden, Conn.)

Another test concerns the target T2, human SGLT1 (Homo sapiens, UniProt P13866).
T2 construct: expressed in transfected cells; host or cells: CHO-K1
T2 sequence (P13866 1-664): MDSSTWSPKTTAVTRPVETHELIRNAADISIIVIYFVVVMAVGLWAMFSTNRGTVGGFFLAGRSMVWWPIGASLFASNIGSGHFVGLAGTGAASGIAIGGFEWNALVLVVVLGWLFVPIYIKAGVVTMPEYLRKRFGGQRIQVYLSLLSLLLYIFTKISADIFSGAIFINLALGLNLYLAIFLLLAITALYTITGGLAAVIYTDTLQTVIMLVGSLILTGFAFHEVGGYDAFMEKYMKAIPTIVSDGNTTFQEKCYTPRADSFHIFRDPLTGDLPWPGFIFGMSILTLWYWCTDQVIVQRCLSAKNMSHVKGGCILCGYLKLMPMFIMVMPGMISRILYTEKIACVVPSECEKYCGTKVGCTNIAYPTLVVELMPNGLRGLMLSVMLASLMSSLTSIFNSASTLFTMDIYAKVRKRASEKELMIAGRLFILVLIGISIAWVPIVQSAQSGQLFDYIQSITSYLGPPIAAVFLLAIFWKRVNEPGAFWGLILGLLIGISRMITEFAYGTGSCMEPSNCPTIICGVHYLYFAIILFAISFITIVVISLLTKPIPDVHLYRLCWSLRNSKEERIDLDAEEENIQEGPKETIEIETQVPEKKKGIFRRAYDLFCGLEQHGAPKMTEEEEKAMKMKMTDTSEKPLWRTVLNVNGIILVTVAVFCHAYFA
Put plainly: SGLT1 assay: Na-dependent 14C-AMG uptake in CHO-K1 cells stably expressing human SGLT1. The following applies: for IC50: 500 μM AMG, 2 hours at 37° C. In kind it is cell-based. How it is done:
as §1, §2, §3

As for `COc1cc(N(C)C)c(Cc2ccc3c(c2)CC3)cc1[C@@H]1O[C@H](CO)[C@@H](O)[C@H](O)[C@H]1O` [Compound 23, (2S,3R,4R,5S,6R)-2-(5-((1,2-dihydrocyclobutabenzen-4-yl)methyl)-4-(dimethylamino)-2-methoxyphenyl)-6-(hydroxymethyl)-tetrahydro-2H-pyran-3,4,5-triol], testing at 0.03 µM at human SGLT2 gave an inhibition of 39%. Also, the inhibition at 0.3 µM at human SGLT1 is 24%.

At human SGLT2, `OC[C@H]1O[C@@H](c2cccc(Cc3ccc4c(c3)CC4)c2)[C@H](O)[C@@H](O)[C@@H]1O` [Compound 24, (2S,3R,4R,5S,6R)-2-(3-((1,2-dihydrocyclobutabenzen-4-yl)methyl)phenyl)-6-(hydroxymethyl)-tetrahydro-2H-pyran-3,4,5-triol] had an inhibition at 0.03 µM of 23%. Besides, at 0.3 µM the inhibition at human SGLT1 was 5%.

`OC[C@H]1O[C@@H](c2cc(Cc3ccc4c(c3)CC4)ccc2O)[C@H](O)[C@@H](O)[C@@H]1O` [Compound 25, (2S,3R,4R,5S,6R)-2-(5-{bicyclo[4.2.0]octa-1(6),2,4-trien-3-ylmethyl}-2-hydroxyphenyl)-6-(hydroxymethyl)oxane-3,4,5-triol] returned an inhibition at 0.03 µM against human SGLT2 of 71%. The molecule also displayed an inhibition at 0.3 µM against human SGLT1 of 36%.

With `COc1ccc(Cc2ccc3c(c2)CC3)cc1[C@@H]1O[C@H](CO)[C@@H](O)[C@H](O)[C@H]1O` [Compound 26, (2S,3R,4R,5S,6R)-2-(5-(bicyclo[4.2.0]octa-1(6),2,4-trien-3-ylmethyl)-2-methoxyphenyl)-6-(hydroxymethyl)oxane-3,4,5-triol], on human SGLT2, 0.03 µM produced 58% inhibition. For the same molecule, at human SGLT1, the inhibition at 0.3 µM was 5%.

As for `Cc1cc(Cc2ccc3c(c2)CC3)cc([C@@H]2O[C@H](CO)[C@@H](O)[C@H](O)[C@H]2O)c1O` [Compound 27, (2S,3R,4R,5S,6R)-2-(5-((1,2-dihydrocyclobutabenzen-4-yl)methyl)-2-hydroxy-3-methylphenyl)-6-(hydroxymethyl)-tetrahydro-2H-pyran-3,4,5-triol], the IC50 on human SGLT2 turned out to be 1 nM; at human SGLT1, 29 nM.

In turn, `Cc1c(Cc2ccc3c(c2)CC3)ccc(O)c1[C@@H]1O[C@H](CO)[C@@H](O)[C@H](O)[C@H]1O` [Compound 28, (2S,3R,4R,5S,6R)-2-(3-((1,2-dihydrocyclobutabenzen-4-yl)methyl)-6-hydroxy-2-methylphenyl)-6-(hydroxymethyl)-tetrahydro-2H-pyran-3,4,5-triol] displayed an inhibition at 0.03 µM against human SGLT2 of 40%. This molecule yielded an inhibition at 0.3 µM against human SGLT1 of 50%.

Turning to `Cc1cc(F)c([C@@H]2O[C@H](CO)[C@@H](O)[C@H](O)[C@H]2O)cc1Cc1ccc2c(c1)CC2` [Compound 29, (2S,3R,4R,5S,6R)-2-(5-[bicyclo[4.2.0]octa-1,3,5-trien-3-ylmethyl]-2-fluoro-4-methylphenyl)-6-(hydroxymethyl)oxane-3,4,5-triol], the concentration for half-maximal inhibition (IC50) came out at 3 nM on human SGLT2 and 92 nM against human SGLT1.

`OC[C@H]1O[C@@H](c2cc(Cc3ccc4c(c3)CC4)c(Cl)cc2F)[C@H](O)[C@@H](O)[C@@H]1O` [Compound 30, (2S,3R,4R,5S,6R)-2-(4-chloro-5-((1,2-dihydrocyclobutabenzen-4-yl)methyl)-2-fluorophenyl)-6-(hydroxymethyl)-tetrahydro-2H-pyran-3,4,5-triol]: the IC50 is 3 nM at human SGLT2 and 206 nM against human SGLT1.

With `COc1cc(F)c([C@@H]2O[C@H](CO)[C@@H](O)[C@H](O)[C@H]2O)cc1Cc1ccc2c(c1)CC2` [Compound 31, (2S,3R,4R,5S,6R)-2-(5-((1,2-dihydrocyclobutabenzen-4-yl)methyl)-2-fluoro-4-methoxyphenyl)-6-(hydroxymethyl)-tetrahydro-2H-pyran-3,4,5-triol], the IC50 came to 10 nM at human SGLT2 and 84 nM at human SGLT1.

As for `CCc1cc(F)c([C@@H]2O[C@H](CO)[C@@H](O)[C@H](O)[C@H]2O)cc1Cc1ccc2c(c1)CC2` [Compound 32, (2S,3R,4R,5S,6R)-2-(5-((1,2-dihydrocyclobutabenzen-4-yl)methyl)-4-ethyl-2-fluorophenyl)-6-(hydroxymethyl)-tetrahydro-2H-pyran-3,4,5-triol], the IC50 against human SGLT2 was 3 nM; at human SGLT1 it was 10 nM.

The molecule `Cc1cc(OC(F)(F)F)c([C@@H]2O[C@H](CO)[C@@H](O)[C@H](O)[C@H]2O)cc1Cc1ccc2c(c1)CC2` [Compound 33, (2S,3R,4R,5S,6R)-2-(5-((1,2-dihydrocyclobutabenzen-4-yl)methyl)-4-methyl-2-(trifluoromethoxy)phenyl)-6-(hydroxymethyl)-tetrahydro-2H-pyran-3,4,5-triol] showed an inhibition at 0.03 µM against human SGLT2 of 57%. Also, on human SGLT1, the inhibition at 0.3 µM was found to be 23%.

For `COc1cc(OC(F)(F)F)c([C@@H]2O[C@H](CO)[C@@H](O)[C@H](O)[C@H]2O)cc1Cc1ccc2c(c1)CC2` [Compound 34, (2S,3R,4R,5S,6R)-2-(5-((1,2-dihydrocyclobutabenzen-4-yl)methyl)-4-methoxy-2-(trifluoromethoxy)phenyl)-6-(hydroxymethyl)-tetrahydro-2H-pyran-3,4,5-triol], the inhibition at 0.03 µM on human SGLT2 is 72%. At 0.3 µM the inhibition at human SGLT1 was 24%.

Molecule `CCc1cc(OC(F)(F)F)c([C@@H]2O[C@H](CO)[C@@H](O)[C@H](O)[C@H]2O)cc1Cc1ccc2c(c1)CC2` [Compound 35, (2S,3R,4R,5S,6R)-2-(5-((1,2-dihydrocyclobutabenzen-4-yl)methyl)-4-ethyl-2-(trifluoromethoxy)phenyl)-6-(hydroxymethyl)-tetrahydro-2H-pyran-3,4,5-triol] showed an inhibition at 0.03 µM against human SGLT2 of 45%. The molecule further displayed an inhibition at 0.3 µM against human SGLT1 of 29%.

In the case of `Cc1cc(OC(F)F)c([C@@H]2O[C@H](CO)[C@@H](O)[C@H](O)[C@H]2O)cc1Cc1ccc2c(c1)CC2` [Compound 36, 2S,3R,4R,5S,6R)-2-(5-([bicyclo[4.2.0]octa-1(6),2,4-trien-3-ylmethyl]-2-(difluoromethoxy)-4-methylphenyl)-6-(hydroxymethyl)oxane-3,4,5-triol], the inhibition at 0.03 µM against human SGLT2 stood at 84%. This molecule registered an inhibition at 0.3 µM at human SGLT1 of 26%.

Molecule `OC[C@H]1O[C@@H](c2cc(Cc3ccc4c(c3)CC4)c(Cl)cc2OC(F)F)[C@H](O)[C@@H](O)[C@@H]1O` [Compound 37, (2S,3R,4R,5S,6R)-2-(4-chloro-2-(difluoromethoxy)-5-((1,2-dihydrocyclobutabenzen-4-yl)methyl)phenyl)-6-(hydroxymethyl)-tetrahydro-2H-pyran-3,4,5-triol] gave an inhibition at 0.03 µM against human SGLT2 of 84%. Moreover, 0.3 µM produced 20% inhibition on human SGLT1.
